# Measurements taken from ChEMBL document CHEMBL3885881, “DrugMatrix”.
# Species: Rattus norvegicus
# Assay type: toxicity, organism-based, Sprague-Dawley
# Conditions: in vivo, ip, 24 h, route intraperitoneal, time 1 day, vehicle .1 % RSA/SALINE
# [1] = 0 mg/kg, vehicle control, tissue Blood, dose level Control
# [2] = 0 mg/kg, vehicle control, tissue Plasma, dose level Control
# [3] = 0.01 mg/kg, tissue Blood, dose level High
# [4] = 0.01 mg/kg, tissue Plasma, dose level High
# Description: DrugMatrix - Regimen: Single
sequence,measurement,setting,value
"INTERLEUKIN 1 BETA, RAT",ABSOLUTE EOSINOPHIL,[1],109.33 CELLS/uL
same,ABSOLUTE LYMPHOCYTE,[1],13180.67 CELLS/uL
same,ABSOLUTE MONOCYTE,[1],354 CELLS/uL
same,ABSOLUTE SEGMENTED NEUTROPHIL,[1],1756 CELLS/uL
same,BASOPHIL,[1],0%
same,EOSINOPHIL,[1],0.67%
same,ERYTHROCYTE COUNT,[1],5.38 x10E6/uL
same,HEMOGLOBIN,[1],12.57 G/DL
same,LEUKOCYTE COUNT,[1],15.4 x10E3/uL
same,LYMPHOCYTE,[1],85%
same,MEAN CORPUSCULAR HEMOGLOBIN,[1],23.37 pg
same,MEAN CORPUSCULAR HEMOGLOBIN CONCENTRATION,[1],38.3 G/DL
same,NEUTROPHIL,[1],12%
same,NUCLEATED RED BLOOD CELLS,[1],0 /100WBC
same,PLATELET COUNT,[1],832.33 x10E3/uL
same,ALANINE AMINOTRANSFERASE,[2],37.33 u/L
same,ALBUMIN,[2],4 G/DL
same,ALKALINE PHOSPHATASE,[2],344.67 u/L
same,ASPARTATE AMINOTRANSFERASE,[2],69.33 u/L
same,BLOOD UREA NITROGEN,[2],13.67 mg/dL
same,CARBON DIOXIDE,[2],28.33 mmol/L
same,CHLORIDE,[2],99.67 MEQ/L
same,CHOLESTEROL,[2],73.67 mg/dL
same,CREATINE PHOSPHOKINASE,[2],270 u/L
same,CREATININE,[2],0.19 mg/dL
same,GLUCOSE,[2],176.33 mg/dL
same,LACTATE DEHYDROGENASE,[2],160 u/L
same,PHOSPHORUS,[2],13.47 mg/dL
same,POTASSIUM,[2],6.77 MEQ/L
same,TOTAL BILIRUBIN,[2],0.13 mg/dL
same,TOTAL PROTEIN,[2],6.07 G/DL
same,URIC ACID,[2],1.87 mg/dL
same,ABSOLUTE EOSINOPHIL,[3],0 CELLS/uL
same,ABSOLUTE LYMPHOCYTE,[3],13348 CELLS/uL
same,ABSOLUTE MONOCYTE,[3],227.67 CELLS/uL
same,ABSOLUTE SEGMENTED NEUTROPHIL,[3],3524.33 CELLS/uL
same,BASOPHIL,[3],0%
same,EOSINOPHIL,[3],0%
same,ERYTHROCYTE COUNT,[3],5.11 x10E6/uL
same,HEMATOCRIT,[3],31.33%
same,HEMOGLOBIN,[3],12.13 G/DL
same,LEUKOCYTE COUNT,[3],17.1 x10E3/uL
same,LYMPHOCYTE,[3],78%
same,MEAN CORPUSCULAR HEMOGLOBIN CONCENTRATION,[3],38.73 G/DL
same,MEAN CORPUSCULAR VOLUME,[3],61.37 fL
same,NEUTROPHIL,[3],20.67%
same,NUCLEATED RED BLOOD CELLS,[3],0.33 /100WBC
same,PLATELET COUNT,[3],933.33 x10E3/uL
same,ALANINE AMINOTRANSFERASE,[4],30.33 u/L
same,ALKALINE PHOSPHATASE,[4],386.33 u/L
same,ASPARTATE AMINOTRANSFERASE,[4],62.67 u/L
same,CARBON DIOXIDE,[4],25.33 mmol/L
same,CHOLESTEROL,[4],66.67 mg/dL
same,CREATINE PHOSPHOKINASE,[4],237 u/L
same,CREATININE,[4],0.18 mg/dL
same,GLUCOSE,[4],176.33 mg/dL
same,LACTATE DEHYDROGENASE,[4],101 u/L
same,PHOSPHORUS,[4],12.13 mg/dL
same,POTASSIUM,[4],6.6 MEQ/L
same,TOTAL BILIRUBIN,[4],0.13 mg/dL
same,TOTAL PROTEIN,[4],6.07 G/DL
